Data on 28 molecules can be found in patent publication US11578087B2, “Oxaborole esters and uses thereof” (priority 2016, dated 2023).

For experiment [1], the system named is IL3000 T. congolense (drug sensitive) strain. The experiment in a line: In vitro Alamar Blue 72 h drug sensitivity assay for T. congolense. Format: cell-based, Trypanosoma congolense. To be noted: Trypanosoma congolense, 72 h, bloodstream form, 69 h + 3 h Resazurin, 34° C., read-out: IC50: I Org. Growth T. congolense 3 d. A digest of the protocol:
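Bloodstream-form trypanosomes in HMI medium with 20% bovine serum were exposed to compounds for 69 h at 34° C, 5% CO2, then resazurin for another 3 h. Fluorescence read at ex 536/em 588 nm; IC50 from 11-point sigmoidal dose-response curves, at least three independent runs.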
On the technique in general: Resazurin is reduced to fluorescent resorufin, in cell work by metabolically active cells.

In experiment [2] the test system is STIB719/ILRAD560 T. vivax (drug sensitive) strain. The experiment in a line: Ex vivo Alamar Blue 48 h drug sensitivity assay for T. vivax. Format: cell-based. The note with it: Trypanosoma vivax, ex vivo bloodstream form from mouse, 45 hrs + 3 hrs Resazurin, 37° C., read-out: IC50: I Hypoxanthine Incorporation T. vivax 2 d.
The subject of experiment [3] is T. cruzi amastigote (Td Tomato-modified) in Vero cells. The experiment in a line: In vitro IC50 measurement of T. cruzi amastigote killing using Td Tomato-modified T. cruzi. Format: cell-based. To be noted: Trypanosoma cruzi, 72 h, fluorescence, read-out: IC50: I Org. amastigote Growth T. cruzi 3 d. Put shortly:
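Vero cells infected with Td Tomato-expressing T. cruzi, treated with compound at 5 uM to 5 nM final, incubated 72 h at 37 °C. Fluorescence (Ex 544/Em 612 nm) read at Day 0 and Day 3, Day 0 subtracted; IC50 and IC90 by nonlinear regression.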

Take `Cc1c(C(=O)N[C@H](C(=O)OCc2ccc(F)cc2F)C(C)C)ccc2c1B(O)OC2` [Example 6-039, 2,4-Difluorobenzyl (1-hydroxy-7-methyl-1,3-dihydrobenzo[c][1,2]oxaborole-6-carbonyl)-L-valinate]: the IC50 in experiment [1] is 0.51 to 9.99 nM; in experiment [2] it was less than 0.5 nM.

Regarding `CC(C)[C@H](NC(=O)c1ccc2c(c1)B(O)OC2(C)C)C(=O)OCc1ccccc1` [Example 6-032, Benzyl (1-hydroxy-3,3-dimethyl-1,3-dihydrobenzo[c][1,2]oxaborole-6-carbonyl)-L-valinate], the IC50 is 10 to 5000 nM in experiment [1] and more than 2000 nM in experiment [2].

With `CC(C)C[C@H](NC(=O)c1ccc2c(c1)B(O)OC2)C(=O)OCc1ccccc1` [Example 6-006, Benzyl (1-hydroxy-1,3-dihydrobenzo[c][1,2]oxaborole-6-carbonyl)-L-leucinate], the IC50 in experiment [1] was in the range of 0.51 to 9.99 nM; in experiment [2], 0.51 to 49.9 nM.

Take `CC(C)c1c(C(=O)N[C@H](C(=O)OCc2ccc(F)cc2)C(C)C)ccc2c1B(O)OC2` [Example 6-062, 4-Fluorobenzyl (1-hydroxy-7-isopropyl-1,3-dihydrobenzo[c][1,2]oxaborole-6-carbonyl)-L-valinate]: the IC50 is 0.51 to 9.99 nM in experiment [1] and less than 0.5 nM in experiment [2].

As to `COC(=O)[C@@H](NC(=O)c1ccc2c(c1C)B(O)OC2)[C@@H](C)OCc1ccccc1` [Example 6-078, Methyl O-benzyl-N-(1-hydroxy-7-methyl-1,3-dihydrobenzo[c][1,2]oxaborole-6-carbonyl)-L-threoninate], the IC50 in experiment [1] fell in the range of 10 to 5000 nM; in experiment [2], 0.51 to 49.9 nM.

For the molecule `CC(C)c1c(C(=O)N[C@H](C(=O)OCc2ccc(S(C)(=O)=O)cc2)C(C)C)ccc2c1B(O)OC2` [Example 6-084, 4-(Methylsulfonyl)benzyl (1-hydroxy-7-isopropyl-1,3-dihydrobenzo[c][1,2]oxaborole-6-carbonyl)-L-valinate], the IC50 fell in the range of 10 to 5000 nM in experiment [1] and 0.51 to 49.9 nM in experiment [2].

As for `C[C@@H](OC(=O)[C@H](Cc1ccccc1)NC(=O)c1ccc2c(c1)B(O)OC2)c1ccccc1` [Example 6-021, (R)-1-phenylethyl (1-hydroxy-1,3-dihydrobenzo[c][1,2]oxaborole-6-carbonyl)-L-phenylalaninate], the IC50 in experiment [1] lay in the range of 0.51 to 9.99 nM; in experiment [2] it was 0.51 to 49.9 nM.

Turning to `Cc1c(C(=O)N[C@H](C(=O)OCc2ccc(F)cc2)c2ccccc2)ccc2c1B(O)OC2` [Example 6-045, 4-Fluorobenzyl (S)-2-(1-hydroxy-7-methyl-1,3-dihydrobenzo[c][1,2]oxaborole-6-carboxamido)-2-phenylacetate], the IC50 in experiment [1] and in experiment [2] was less than 0.5 nM in each case.

Take `C[C@H](NC(=O)c1ccc2c(c1)B(O)OC2)C(=O)O[C@H](C)c1ccccc1` [Example 6-019, (R)-1-Phenylethyl (1-hydroxy-1,3-dihydrobenzo[c][1,2]oxaborole-6-carbonyl)-L-alaninate]: the IC50 in experiment [1] lay within 0.51 to 9.99 nM; in experiment [2], 50 to 2000 nM.

Take `Cc1c(C(=O)N[C@H](C(=O)OCc2cccc(F)c2)C(C)C)ccc2c1B(O)OC2` [Example 6-042, 3-Fluorobenzyl (1-hydroxy-7-methyl-1,3-dihydrobenzo[c][1,2]oxaborole-6-carbonyl)-L-valinate]: the IC50 was 0.51 to 9.99 nM in experiment [1] and less than 0.5 nM in experiment [2].

`C[C@H](NC(=O)c1ccc2c(c1)B(O)OC2)C(=O)OCc1ccccc1` [Example 6-174, Benzyl (1-hydroxy-1,3-dihydrobenzo[c][1,2]oxaborole-6-carbonyl)-L-alaninate]: the IC50 in experiment [1] lay within 0.51 to 9.99 nM; in experiment [2], 50 to 2000 nM.

`CC(C)[C@H](NC(=O)c1ccc2c(c1C1CC1)B(O)OC2)C(=O)OCc1ccc(F)cc1` [Example 6-057, 4-Fluorobenzyl (7-cyclopropyl-1-hydroxy-1,3-dihydrobenzo[c][1,2]oxaborole-6-carbonyl)-L-valinate]: the IC50 in experiment [1] is 0.51 to 9.99 nM; in experiment [2], less than 0.5 nM.

Consider `Cc1c(C(=O)N[C@H](C(=O)OCc2ccc3c(c2)C(=O)CS3(=O)=O)C(C)C)ccc2c1B(O)OC2` [Example 6-104, (1,1-Dioxido-3-oxo-2,3-dihydrobenzo[b]thiophen-5-yl)methyl (1-hydroxy-7-methyl-1,3-dihydrobenzo[c][1,2]oxaborole-6-carbonyl)-L-valinate], for which the results for the IC50 in experiment [1] and in experiment [2] were 10 to 5000 nM and 0.51 to 49.9 nM, respectively.

In the case of `C[C@H](NC(=O)c1ccc2c(c1)B(O)OC2)C(=O)O[C@@H](C)c1ccccc1` [Example 6-022, (S)-1-phenylethyl (1-hydroxy-1,3-dihydrobenzo[c][1,2]oxaborole-6-carbonyl)-L-alaninate], the IC50 was 10 to 5000 nM in experiment [1] and 50 to 2000 nM in experiment [2].

With `Cc1c(C(=O)N[C@H](C(=O)OCc2ccc(OCCCN3CCCC3)c(F)c2)C(C)C)ccc2c1B(O)OC2` [Example 6-246, 3-Fluoro-4-(3-(pyrrolidin-1-yl)propoxy)benzyl (1-hydroxy-7-methyl-1,3-dihydrobenzo[c][1,2]oxaborole-6-carbonyl)-L-valinate], the IC50 is 0.51 to 9.99 nM in experiment [1] and less than 0.5 nM in experiment [2].

As to `Cc1c(C(=O)N[C@H](C(=O)OCc2ccc(OCCN3CCCC3)c(F)c2)C(C)C)ccc2c1B(O)OC2` [Example 6-242, 3-Fluoro-4-(2-(pyrrolidin-1-yl)ethoxy)benzyl (1-hydroxy-7-methyl-1,3-dihydrobenzo[c][1,2]oxaborole-6-carbonyl)-L-valinate], the IC50 in experiment [1] is 0.51 to 9.99 nM; in experiment [3] it was not above 20 nM.

Take `COCCOC(=O)[C@@H](NC(=O)c1ccc2c(c1C)B(O)OC2)C(C)C` [Example 6-107, 2-Methoxyethyl (1-hydroxy-7-methyl-1,3-dihydrobenzo[c][1,2]oxaborole-6-carbonyl)-L-valinate]: the IC50 was less than 0.5 nM in experiment [1] and not above 20 nM in experiment [3].

Take `Cc1c(C(=O)N[C@H](C(=O)OC2CCNCC2)C(C)C)ccc2c1B(O)OC2` [Example 6-146, Piperidin-4-yl (1-hydroxy-7-methyl-1,3-dihydrobenzo[c][1,2]oxaborole-6-carbonyl)-L-valinate]: the results for the IC50 in experiment [1] and in experiment [3] were 10 to 5000 nM and not below 1000 nM, respectively.

In the case of `Cc1c(C(=O)N[C@H](C(=O)OCc2cccc(Cl)c2)C(C)C)ccc2c1B(O)OC2` [Example 6-043, 3-Chlorobenzyl (1-hydroxy-7-methyl-1,3-dihydrobenzo[c][1,2]oxaborole-6-carbonyl)-L-valinate], the IC50 in experiment [1] is less than 0.5 nM; in experiment [3], not above 20 nM.

Consider `Cc1c(C(=O)N[C@H](C(=O)OCc2cccc(C(F)(F)F)c2)C(C)C)ccc2c1B(O)OC2` [Example 6-046, 3-Trifluoromethylbenzyl (1-hydroxy-7-methyl-1,3-dihydrobenzo[c][1,2]oxaborole-6-carbonyl)-L-valinate], for which the IC50 in experiment [1] is less than 0.5 nM; in experiment [3], not above 20 nM.

With `NC(=O)C[C@H](NC(=O)c1ccc2c(c1)B(O)OC2)C(=O)OCc1ccccc1` [Example 6-010, Benzyl (1-hydroxy-1,3-dihydrobenzo[c][1,2]oxaborole-6-carbonyl)-L-asparaginate], the IC50 is 10 to 5000 nM in experiment [1] and not below 1000 nM in experiment [3].

As for `CCOc1c(C(=O)N[C@H](C(=O)OCc2ccccc2)C(C)C)ccc2c1B(O)OC2` [Example 6-192, Benzyl (7-ethoxy-1-hydroxy-1,3-dihydrobenzo[c][1,2]oxaborole-6-carbonyl)-L-valinate], the IC50 in experiment [1] was 0.51 to 9.99 nM; in experiment [3] it was not below 1000 nM.

For the molecule `Cc1c(C(=O)N[C@H](C(=O)O[C@H]2CCOC2)C(C)C)ccc2c1B(O)OC2` [Example 6-140, (S)-Tetrahydrofuran-3-yl (1-hydroxy-7-methyl-1,3-dihydrobenzo[c][1,2]oxaborole-6-carbonyl)-L-valinate], the values for the IC50 in experiment [1] and in experiment [3] were 0.51 to 9.99 nM and 21 to 999 nM, respectively.

As to `CC(C)c1c(C(=O)N[C@H](C(=O)OCc2ccccc2)C(C)C)ccc2c1B(O)OC2` [Example 6-063, Benzyl (1-hydroxy-7-isopropyl-1,3-dihydrobenzo[c][1,2]oxaborole-6-carbonyl)-L-valinate], the figures for the IC50 in experiment [1] and in experiment [3] were 0.51 to 9.99 nM and not below 1000 nM, respectively.

Turning to `Cc1c(C(=O)NC2(C(=O)OCc3ccccn3)COC2)ccc2c1B(O)OC2` [Example 6-223, Pyridin-2-ylmethyl 3-(1-hydroxy-7-methyl-1,3-dihydrobenzo[c][1,2]oxaborole-6-carboxamido)oxetane-3-carboxylate], the IC50 in experiment [1] lay in the range of 10 to 5000 nM; in experiment [3], 21 to 999 nM.

`CC(C)[C@H](NC(=O)c1ccc2c(c1)B(O)OC2(C)C)C(=O)OCc1ccc(F)cc1` [Example 6-033, 4-Fluorobenzyl (1-hydroxy-3,3-dimethyl-1,3-dihydrobenzo[c][1,2]oxaborole-6-carbonyl)-L-valinate]: the IC50 was 10 to 5000 nM in experiment [1] and not below 1000 nM in experiment [3].

Consider `COCC1(COC(=O)[C@@H](NC(=O)c2ccc3c(c2C)B(O)OC3)C(C)C)CCOCC1` [Example 6-152, (4-(Methoxymethyl)tetrahydro-2H-pyran-4-yl)methyl (1-hydroxy-7-methyl-1,3-dihydrobenzo[c][1,2]oxaborole-6-carbonyl)-L-valinate], for which the figures for the IC50 in experiment [1] and in experiment [3] were less than 0.5 nM and 21 to 999 nM, respectively.

With `Cc1c(C(=O)N[C@H](C(=O)OCC(C)(C)O)C(C)C)ccc2c1B(O)OC2` [Example 6-211, 2-hydroxy-2-methylpropyl (1-hydroxy-7-methyl-1,3-dihydrobenzo[c][1,2]oxaborole-6-carbonyl)-L-valinate], the IC50 in experiment [1] lay in the range of 0.51 to 9.99 nM; in experiment [3] it was 21 to 999 nM.
